# Key:
# [1] = molecular target: T1, human vasopressin V1a receptor subtype (Homo sapiens, UniProt P37288); assay: Vasopressin binding in Chinese Hamster Ovary cell membranes expressing human vasopressin V1a subtype receptors; settings: 100 nM, CHO cell membranes, [3H]Manning ligand, values without parentheses
# T1 construct: host or cells: CHO cells (pZeoSV vector for the Thibonnier line)
# Method in brief: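 Displacement of [3H]Manning ligand (8 nM working solution) from human V1a receptors in CHO cell membranes, 25–50 μg protein per well. Incubation ran 60 min at room temperature in 50 mM Tris-HCl pH 7.4 with protease inhibitors, followed by filtration and scintillation counting. Results are given as IC50 or percent inhibition.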
# T1 sequence (P37288 whole entry): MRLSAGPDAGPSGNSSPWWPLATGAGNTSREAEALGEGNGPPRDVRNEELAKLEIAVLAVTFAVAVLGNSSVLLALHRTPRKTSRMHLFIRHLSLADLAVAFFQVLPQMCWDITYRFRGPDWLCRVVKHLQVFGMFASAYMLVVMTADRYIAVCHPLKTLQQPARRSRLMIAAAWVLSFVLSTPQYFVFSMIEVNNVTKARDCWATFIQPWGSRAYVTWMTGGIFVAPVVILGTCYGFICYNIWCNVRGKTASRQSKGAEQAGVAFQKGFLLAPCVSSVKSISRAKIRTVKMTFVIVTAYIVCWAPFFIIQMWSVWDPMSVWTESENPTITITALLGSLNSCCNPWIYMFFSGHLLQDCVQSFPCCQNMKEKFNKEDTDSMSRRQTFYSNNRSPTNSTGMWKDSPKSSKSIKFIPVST
SMILES,melting point [°C],inhibition at 0.1 µM [1] [%]
"COc1ccccc1-c1ccc(C(=O)N2Cc3ccc(C(=O)O)n3Cc3ccccc32)cc1C [Example 9, 10-[(2′-Methoxy-2-methyl-[1,1′-biphenyl]-4-yl)carbonyl]-10,11-dihydro-5H-pyrrolo[2,1-c][1,4]benzodiazepine-3-carboxylic acid]",174 to 184,10
"COc1cc2c(cc1OC)N(C(=O)c1ccc(-c3ccccc3C(F)(F)F)c(C)c1)Cc1cccn1C2 [Example 12, 7,8-Dimethoxy-[10,11-dihydro-5H-pyrrolo[2,1-c][1,4]benzodiazepin-10-yl][2-methyl-2′-(trifluoromethyl)[1,1′-biphenyl]-4-yl]methanone]",187 to 188,-10
"COc1ccccc1-c1ccc(C(=O)N2Cc3ccc(C(=O)N(C)C4CCN(C)CC4)n3Cc3ccccc32)cc1OC [Example 183, 10-[(2,2′-Dimethoxy[1,1′-biphenyl]-4-yl)carbonyl]-N-methyl-N-(1-methyl-4-piperidinyl)-10,11-dihydro-5H-pyrrolo[2,1-c][1,4]benzodiazepine-3-carboxamide]",–,26
"COc1cccc(-c2cc(OC)c(C(=O)N3Cc4ccc(C(=O)NCCN5CCCCC5)n4Cc4ccccc43)cc2Cl)c1 [Example 156, 10-[(6-Chloro-3,3′-dimethoxy[1,1′-biphenyl]-4-yl)carbonyl]-N-[2-(1-piperidinyl)ethyl]-10,11-dihydro-5H-pyrrolo[2,1-c][1,4]benzodiazepine-3-carboxamide]",–,2
"COc1cccc(-c2ccc(C(=O)N3Cc4ccc(C(=O)N(C)C5CCN(C)C5)n4Cc4ccccc43)cc2C)c1 (stereo not drawn) [Example 186, 10-[(3′-Methoxy-2-methyl[1,1′-biphenyl]-4-yl)carbonyl]-N-methyl-N-(1-methyl-3-pyrrolidinyl)-10,11-dihydro-5H-pyrrolo[2,1-c][1,4]benzodiazepine-3-carboxamide]",–,53
"COc1cc(C(=O)N2Cc3ccc(C(=O)N(C)C4CCN(C)CC4)n3Cc3ccccc32)ccc1-c1ccccc1C [Example 179, 10-[(2-Methoxy-2′-methyl[1,1′-biphenyl]-4-yl)carbonyl]-N-methyl-N-(1-methyl-4-piperidinyl)-10,11-dihydro-5H-pyrrolo[2,1-c][1,4]benzodiazepine-3-carboxamide]",–,73
"COc1cccc(-c2cc(OC)c(C(=O)N3Cc4ccc(C(=O)N(C)C5CCN(C)CC5)n4Cc4ccccc43)cc2Cl)c1 [Example 181, 10-[(6-Chloro-3,3′-dimethoxy[1,1′-biphenyl]-4-yl)carbonyl]-N-methyl-N-(1-methyl4-piperidinyl)-10,11-dihydro-5H-pyrrolo[2,1-c][1,4]benzodiazepine-3-carboxamide]",–,23
"CN1CCCC1CCNC(=O)c1ccc2n1Cc1ccccc1N(C(=O)c1ccc(-c3cccc4ccccc34)cc1Cl)C2 (stereo not drawn) [Example 173, 10-[2-Chloro-4-(1-naphthyl)benzoyl]-N-[2-(1-methyl-2-pyrrolidinyl)ethyl]-10,11-dihydro-5H-pyrrolo[2,1-c][1,4]benzodiazepine-3-carboxamide]",–,0
"Cc1ccccc1-c1ccc(C(=O)N2Cc3ccc(C(=O)NCCC4CCCN4C)n3Cc3ccccc32)cc1C (stereo not drawn) [Example 163, 10-[(2,2′-Dimethyl[1,1′-biphenyl]-4-yl)carbonyl]-N-[2-(1-methyl-2-pyrrolidinyl)ethyl]-10,11-dihydro-5H-pyrrolo[2,1-c][1,4]benzodiazepine-3-carboxamide]",–,43
"COc1ccccc1-c1ccc(C(=O)N2Cc3ccc(C(=O)NCCN4CCCCC4)n3Cc3ccccc32)cc1OC [Example 158, 10-[(2,2′-Dimethoxy[1,1′-biphenyl]-4-yl)carbonyl]-N-[2-(1-piperidinyl)ethyl]-10,11-dihydro-5H-pyrrolo[2,1-c][1,4]benzodiazepine-3-carboxamide]",–,16

# Now from value to compound:
melting point [°C],inhibition at 0.1 µM [1] [%],SMILES
–,45,"Cc1ccccc1-c1ccc(C(=O)N2Cc3ccc(C(=O)N4CCN(CCN5CCOCC5)CC4)n3Cc3ccccc32)cc1C [Example 218, {10-[(2,2′-Dimethyl[1,1′-biphenyl]-4-yl)carbonyl]-10,11-dihydro-5H-pyrrolo[2,1-c][1,4]benzodiazepin-3-yl}{4-[2-(4-morpholinyl)ethyl]-1-piperazinyl}methanone]"
–,8,"COc1ccccc1-c1ccc(C(=O)N2Cc3ccc(C(=O)N4CCN(CCN5CCOCC5)CC4)n3Cc3ccccc32)cc1OC [Example 214, {10-[(2,2′-Dimethoxy[1,1′-biphenyl]-4-yl)carbonyl]-10,11-dihydro-5H-pyrrolo[2,1-c][1,4]benzodiazepin-3-yl}{4-[2-(4-morpholinyl)ethyl]-1-piperazinyl}methanone]"
–,41,"COc1cccc(-c2cc(OC)c(C(=O)N3Cc4ccc(C(=O)N(C)C5CCN(C)C5)n4Cc4ccccc43)cc2Cl)c1 (stereo not drawn) [Example 191, 10-[(6-Chloro-3,3′-dimethoxy[1,1′-biphenyl]-4-yl)carbonyl]-N-methyl-N-(1-methyl-3-pyrrolidinyl)-10,11-dihydro-5H-pyrrolo[2,1-c][1,4]benzodiazepine-3-carboxamide]"
–,3,"C=CCN1CCN(C(=O)c2ccc3n2Cc2ccccc2N(C(=O)c2cc(Cl)c(-c4cccc(OC)c4)cc2OC)C3)CC1 [Example 226, (4-Allyl-1-piperazinyl){10-[(6-chloro-3,3′-dimethoxy[1,1′-biphenyl]-4-yl)carbonyl]-10,11-dihydro-5H-pyrrolo[2,1-c][1,4]benzodiazepin-3-yl}methanone]"
–,83,"COc1cc(C(=O)N2Cc3ccc(C(=O)N(C)C4CCN(C)C4)n3Cc3ccccc32)ccc1-c1ccccc1C (stereo not drawn) [Example 189, 10-[(2-Methoxy-2′-methyl[1,1′-biphenyl]-4-yl)carbonyl]-N-methyl-N-(1-methyl-3-pyrrolidinyl)-10,11-dihydro-5H-pyrrolo[2,1-c][1,4]benzodiazepine-3-carboxamide]"
–,45,"COc1cccc(-c2ccc(C(=O)N3Cc4ccc(C(=O)N5CCN(CCN6CCOCC6)CC5)n4Cc4ccccc43)cc2OC)c1 [Example 211, {10-[(2,3′-Dimethoxy[1,1′-biphenyl]-4-yl)carbonyl]-10,11-dihydro-5H-pyrrolo[2,1-c][1,4]benzodiazepin-3-yl}{4-[2-(4-morpholinyl)ethyl]-1-piperazinyl}methanone]"
–,22,"C=CCN1CCN(C(=O)c2ccc3n2Cc2ccccc2N(C(=O)c2ccc(-c4cccc(OC)c4)c(OC)c2)C3)CC1 [Example 228, (4-Allyl-1-piperazinyl){10-[(2,3′-dimethoxy[1,1′-biphenyl]-4-yl)carbonyl]-10,11-dihydro-5H -pyrrolo[2,1-c][1,4]benzodiazepin-3-yl}methanone]"
–,10,"Cc1cc(C(=O)N2Cc3ccc(C(=O)N4CCN(CCN5CCOCC5)CC4)n3Cc3ccccc32)ccc1-c1ccccc1C(F)(F)F [Example 216, (10-{[2-Methyl-2′-(trifluoromethyl)[1,1′-biphenyl]-4-yl]carbonyl}-10,11-dihydro-5H -pyrrolo[2,1-c][1,4]benzodiazepin-3-yl){4-[2-(4-morpholinyl)ethyl]-1-piperazinyl}methanone]"
–,31,"Cc1ccccc1-c1ccc(C(=O)N2Cc3ccc(C(=O)N4CCN(C(C)C)CC4)n3Cc3ccccc32)cc1C [Example 233, {10-[(2,2′-Dimethyl[1,1′-biphenyl]-4-yl)carbonyl]-10,11-dihydro-5H-pyrrolo[2,1-c][1,4]benzodiazepin-3-yl}(4-isopropyl-1-piperazinyl)methanone]"
–,13,"COc1ccccc1-c1ccc(C(=O)N2Cc3ccc(C(=O)N4CCN(C(C)C)CC4)n3Cc3ccccc32)cc1C [Example 232, (4-Isopropyl-1-piperazinyl){10-[(2′-methoxy-2-methyl[1,1′-biphenyl]-4-yl)carbonyl]-10,11-dihydro-5H-pyrrolo[2,1-c][1,4]benzodiazepin-3-yl}methanone]"
–,15,"C=CCN1CCN(C(=O)c2ccc3n2Cc2ccccc2N(C(=O)c2ccc(-c4ccccc4OC)c(C)c2)C3)CC1 [Example 222, (4-Allyl-1-piperazinyl){10-[(2′-methoxy-2-methyl[1,1′-biphenyl]-4-yl)carbonyl]-10,11-dihydro-5H-pyrrolo[2,1-c][1,4]benzodiazepin-3-yl}methanone]"
–,40,"COc1cc(-c2ccccc2C)c(Cl)cc1C(=O)N1Cc2ccc(C(=O)N(C)C3CCN(C)C3)n2Cc2ccccc21 (stereo not drawn) [Example 190, 10-[(6-Chloro-3-methoxy-2′-methyl[1,1′-biphenyl]-4-yl)carbonyl]-N-methyl-N-(1-methyl-3-pyrrolidinyl)-10,11-dihydro-5H-pyrrolo[2,1-c][1,4]benzodiazepine-3-carboxamide]"
–,12,"COc1cc(C(=O)N2Cc3ccc(C(=O)N4CCN(CCN5CCOCC5)CC4)n3Cc3ccccc32)ccc1-c1cccc2ccccc12 [Example 213, {10-[3-Methoxy-4-(1-naphthyl)benzoyl]-10,11-dihydro-5H-pyrrolo[2,1-c][1,4]benzodiazepin-3-yl}{4-[2-(4-morpholinyl)ethyl]-1-piperazinyl}methanone]"
–,26,"COc1ccccc1-c1ccc(C(=O)N2Cc3ccc(C(=O)N4CCN(C(C)C)CC4)n3Cc3ccccc32)cc1 [Example 234, (4-Isopropyl-1-piperazinyl){10-[(2′-methoxy[1,1′-biphenyl]-4-yl)carbonyl]-10,11-dihydro-5H-pyrrolo[2,1-c][1,4]benzodiazepin-3-yl}methanone]"
–,2,"COc1cccc(-c2cc(OC)c(C(=O)N3Cc4ccc(C(=O)N5CCN(C(C)C)CC5)n4Cc4ccccc43)cc2Cl)c1 [Example 239, {10-[(6-Chloro-3,3′-dimethoxy[1,1′-biphenyl]-4-yl)carbonyl]-10,11-dihydro-5H-pyrrolo[2,1-c][1,4]benzodiazepin-3-yl}(4-isopropyl-1-piperazinyl)methanone]"

# — patent US7109193B2, “Tricyclic diazepines tocolytic oxytocin receptor antagonists” (Wyeth, priority 2001, dated 2006)
